Source: patent publication US9540412B2, “Methods of preparing targeted aptamer prodrugs” (Albert Einstein College of Medicine, Inc., priority 2010, dated 2017)
Read-outs that look alike come from different tables or passages of the source.

T1: human protein tyrosine kinase-7 (Homo sapiens, UniProt Q13308)
T1 construct: This protein is overexpressed on a variety of leukemia cell lines; endogenous in cells; host or cells: 'target cells'
T1 sequence (Q13308 31-1070): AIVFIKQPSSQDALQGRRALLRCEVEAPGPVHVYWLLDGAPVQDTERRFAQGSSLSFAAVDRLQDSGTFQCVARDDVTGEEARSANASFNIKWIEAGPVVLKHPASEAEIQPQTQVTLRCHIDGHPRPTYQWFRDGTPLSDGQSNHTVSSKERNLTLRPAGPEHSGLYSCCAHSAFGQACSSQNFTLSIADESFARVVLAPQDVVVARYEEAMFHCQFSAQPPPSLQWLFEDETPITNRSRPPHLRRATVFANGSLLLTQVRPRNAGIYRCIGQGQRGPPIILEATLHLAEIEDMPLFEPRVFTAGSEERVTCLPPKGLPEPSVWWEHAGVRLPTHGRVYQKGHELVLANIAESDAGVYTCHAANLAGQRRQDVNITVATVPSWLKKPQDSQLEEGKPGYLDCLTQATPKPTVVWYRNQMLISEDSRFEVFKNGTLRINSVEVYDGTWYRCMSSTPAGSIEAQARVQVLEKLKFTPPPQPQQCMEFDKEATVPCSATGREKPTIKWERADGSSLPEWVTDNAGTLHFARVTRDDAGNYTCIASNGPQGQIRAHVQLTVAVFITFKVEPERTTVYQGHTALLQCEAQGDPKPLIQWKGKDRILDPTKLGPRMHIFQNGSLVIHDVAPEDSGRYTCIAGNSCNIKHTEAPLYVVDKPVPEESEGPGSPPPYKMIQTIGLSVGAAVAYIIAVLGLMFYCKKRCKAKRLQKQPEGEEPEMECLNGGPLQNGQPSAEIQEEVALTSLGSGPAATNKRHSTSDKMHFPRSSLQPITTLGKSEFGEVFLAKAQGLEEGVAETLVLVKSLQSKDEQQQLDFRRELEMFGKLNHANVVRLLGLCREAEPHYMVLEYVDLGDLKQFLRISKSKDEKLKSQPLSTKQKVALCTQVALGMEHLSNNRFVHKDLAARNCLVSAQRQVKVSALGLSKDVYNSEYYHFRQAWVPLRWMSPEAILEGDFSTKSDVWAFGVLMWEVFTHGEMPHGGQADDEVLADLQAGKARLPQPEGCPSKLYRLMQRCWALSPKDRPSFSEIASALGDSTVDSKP


Legend:
[1] = test system: HeLa cells; experiment: HeLa cell viability (alamarBlue) after aptamer-prodrug treatment; assay type: cell-based, human; details: 50 nM aptamer, 4 days, serum free media (DMEM containing 1% Nutridoma), FIG. 3
Text: To test the feasibility of this strategy for delivery of nucleoside analog drugs, two different anti-hTfR aptamers (designated min8 and min9.1) were extended with a 24 nucleotide extension. A complementary DNA oligonucleotide (FdC-oligo) was then synthesized to this region in which all cytosine residues had been replaced with the nucleoside analog 5F-deoxycytidine (FdC), a potent inhibitor of methyltransferase activity (Beumer et al. 2008). The aptamer-produgs were then assembled by mixing the drug oligo at a 1:1 molar ratio with one of two different minized anti-hTfR aptamers, min8, min9.1, or a non-targeting control aptamer (cntrl) in PBS and thermally equilibrated by heating at 70° C. Aptamer function following hybridization was confirmed by FACS using a FITC labeled version of the oligonucleotide.
The ability of the assembled anti-hTfR aptamer-prodrugs to deliver therapeutic cargo to cells was tested on HeLa cells. To avoid potential complications from degradation of the FdC-oligo (which is DNA and thus readily susceptible to degradation), these assays were performed in serum free media (DMEM containing 1% Nutridoma). Cells were incubated with increasing concentrations of either free drug, anti-hTfR aptamer-prodrugs or controls for 4 days, after which cell viability was assayed using the chromogenic substrate alamarBlue. […]

[2] = test system: Min6B1 cells; experiment: Flow cytometry cell labeling of Min6B1 cells; assay type: cell-based, mouse; details: streptavidin phycoerytherin
[3] = test system: LNCaP cells; details: unconjugated toxin; read-out: IC50 (toxicity); cited from earlier work
[4] = target: T1, human protein tyrosine kinase-7; experiment: Binding of fluorescently labeled scgc8 aptamer prodrugs to target cells (FIG. 4A); details: fluorescently labeled aptamers
Text: (§1) In addition to adding drugs to aptamers by hybridization, a series of aptamer-prodrugs has been synthesized using a DNA aptamer (scgc8) which targets human protein tyrosine kinase-7. […] To stabilize these aptamers against serum nucleases, the oligonucleotides were generated bearing a 3′ inverted thymidine residue which dramatically stabilizes the serum half-life of DNA molecules to ˜20 hrs (Dass et al. 2002).
A ssDNA aptamer that targets protein kinase 7 was selected by Shanggun et al (J Proteome Res, 2008 7:2133). The aptamer, scgc.8, was adapted for the delivery of floxuridine (5FdU) by site specific incorporation this nucleoside analog drug during chemical synthesis. Aptamer prodrugs were synthesized bearing a 5′ fluorescein molecule and a 3′ inverted thymiding residue to enhance serum stability. The sequence of the parental aptamer and the aptamer prodrugs are: Scgc.8 […] (SEQ ID NO:8); Scgc.8-5 AU*CU*AACU*[…]*U*AGA (SEQ ID NO:9); Scgc.8-9 AU*CU*AACU*GCU*GCGCCGCCGGGAAAAU*ACU*GU*ACGGU*U*AGA (SEQ ID NO:10). U* denotes 5FdU.

[5] = test system: Jurkat cells; experiment: Jurkat cell growth inhibition / toxicity (FIG. 4B); assay type: cell-based, human; details: 500 nM, regular media (RPMI+10% FBS), 3' inverted thymidine
Text: as §1

[6] = test system: Min6B1 cells; experiment: Internalization into Min6B1 cells (fluorescence microscopy); assay type: cell-based, mouse
Description: Aptamers that target and are internalized by beta cells were identified by performing an internalization selection against the glucose-responsive immortalized mouse beta cell line Min6B1. As in the selection against the transferrin receptor described above, in order to drive the selection towards molecules that are internalized, following incubation with the RNA library, target cells were washed extensively and treated with trypsin and ribonuclease to remove any surface bound RNA. Following recovery of total RNA, aptamers were amplified, transcribed and the process was repeated.
When similar experiments were conducted with the unselected library, little or no fluorescent signal was observed.

[7] = test system: mouse (fibroblasts, brain endothelial, skeletal and myocardial muscles) and human (cervical and prostate cancer) cell lines; experiment: Specificity studies on additional mouse and human cell lines; assay type: cell-based

Row | Molecule | cell labeling [2] | binding to target cells [4] | inhibition of cell growth / toxicity [5] | further results
1 | Nc1nc(=O)n([C@H]2C[C@H](O)[C@@H](CO)O2)cc1F [free drug, 5F-deoxycytidine] |  |  |  | cell viability [1]: loss of cell viability
2 | C1.min: minimized core of C1, SEQ ID NO:12 (UGCGAAUCCUCUAUCCGUUCUAAACGCUUUAUGAUUUCGCA; listed as RNA, chemistry not given here) | labeled cells as efficiently as the full length clone |  |  | 
3 | gelonin |  |  |  | IC50 [3]: ~5 µM
4 | scgc8-5: scgc8 with 5 of 9 thymidine residues replaced with floxuridine, SEQ ID NO:9 (AUCUAACUGCTGCGCCGCCGGGAAAATACTGTACGGUUAGA; floxuridine substitutions, chemistry not fully specified) |  | still bound target cells better than a scrambled control sequence (cntrl-9) but less efficiently than the non-drug containing aptamer (scgc8) | considerable lower levels of toxicity | 
5 | scgc8-9: scgc8 with all 9 thymidine residues replaced with floxuridine, SEQ ID NO:10 (AUCUAACUGCTGCGCCGCCGGGAAAATACTGTACGGUUAGA; all 9 thymidines replaced with floxuridine, chemistry not fully specified) |  | still bound target cells better than a scrambled control sequence (cntrl-9) but less efficiently than the non-drug containing aptamer (scgc8) | inhibited cell growth as efficiently as free drug alone | 
6 | C1: 2′F modified internalizing RNA selected against Min6B1 cells, SEQ ID NO:11 (nucleic acid, 2'-fluoro modified RNA library, positions of 2'-F not given here) GGGAGGUGAAUGGUUCUACGAUAUUGCGAAUCCUCUAUCCGUUCUAAACGCUUUAUGAUUUCGCAUAGUCCUUACAUGCGAGAUGACCACCGUAAUUGAAUUAAAUGCCCGCCAUGACCAG | significant cell labeling |  |  | internalization [6]: not only binds to, but is also internalized by this cell type; internalization ([6]; listed as dominant clone): readily internalized by Min6B1 cells; cell specificity of targeting / internalization [7]: targets several unrelated cell lines across different species; cell specificity of targeting / internalization ([7]; listed as dominant clone): not specific for beta cells
